Results on 86 compounds are retold here after a melting point compilation (Tetko et al.; mined from patent text by program, amines drawn as free bases though some values may be those of a salt).

Each structure is given as a SMILES string.

With `CC(=O)Nc1nc2c(Oc3cc(-c4ccc(C(F)(F)F)cc4Cl)ncn3)cccc2s1`, the melting point lay within 263 to 264 °C.

As to `CC1(CN2CCC(N3CCNC3=O)CC2)OCc2ccccc2-n2cccc21` (stereo unspecified), the melting point lay within 197 to 199 °C.

Compound `c1ccc(C2CN(CCc3ccccn3)Cc3c2[nH]c2ccccc32)cc1` (stereo unspecified) had a melting point of 190 to 192 °C.

In the case of `Cc1cc2ccc(/C=C/C(=O)OCc3ccccc3)cc2[nH]1`, the melting point was in the range of 164 to 165 °C.

In the case of `CCC12CCC3C4CCC(=O)C=C4CCC3C1CCC2OC(O)C(Cl)(Cl)Cl` (stereo unspecified), the melting point was in the range of 175 to 176 °C.

`COc1ccc2c(c1)OCC(c1ccc(F)cc1)C2c1ccc(O)cc1` (stereo unspecified) registered a melting point of 164 to 165 °C.

Consider `N=C(NS(=O)(=O)C=Cc1ccc([N+](=O)[O-])cc1)c1cccc([N+](=O)[O-])c1`, for which the melting point fell in the range of 230 to 232 °C.

On to `C=CCN1CCC(c2cc(-c3ccc(Cl)cc3)[nH]n2)CC1`, for which the melting point lay in the range of 165 to 167 °C.

Compound `C=CCNc1nc(NCC)nc2ccc([N+](=O)[O-])cc12` returned a melting point of 227 to 228 °C.

Take `CCOCc1nc(C(C)(C)O)c(C(=O)O)n1Cc1ccc(-c2ccccc2-c2nnn[nH]2)cc1`: the melting point came out at 150 °C.

As to `CCc1nn(-c2ccc(F)cc2)c2cc(C3=CCC(C(=O)O)CC3)ccc12` (stereo unspecified), the melting point lay in the range of 214 to 216 °C.

Compound `CC(C)c1cc(C(=O)Nc2ccc(C(=O)O)cn2)sc1C(C)C` registered a melting point of over 300 °C.

For the compound `CC(=O)OCC1OC(OC(C)=O)C(N=[N+]=[N-])C(OC(C)=O)C1OC(C)=O` (stereo unspecified), the melting point fell in the range of 131 to 132 °C.

With `CSc1nc(Cl)c(-c2ccccc2)c(NN)n1`, the melting point was 134 to 135 °C.

As to `COC(=O)c1ccc(CCN(C)CCCC(C#N)(C(=O)OC)c2ccc(OC)c(OC)c2)cc1` (stereo unspecified), the melting point fell in the range of 80 to 83 °C.

In turn, `CC(Cn1cncn1)(O[Si](C)(C)C)c1ccc(F)cc1F` (stereo unspecified) showed a melting point of 51 to 53 °C.

Take `CCOc1ccc(S(=O)(=O)N2CCN(C)CC2)cc1-c1nc2c([nH]1)c1nncn1c(=O)n2CC`: the melting point is 248 °C.

As for `Fc1ccc(-c2nc(=S)c3c(o2)CCCC3)cc1`, the melting point is 148 to 149 °C.

Turning to `CN1CCC2(CC1)Nc1ccccc1S2`, the melting point was in the range of 135 to 140 °C.

On to `CC(=O)NCc1ccc(CCN2CCC(n3ccc4ccccc43)CC2)cc1`, for which the melting point is 133 to 134 °C.

`CC(C)C1(C)NC(c2ccc(CO)cn2)=NC1=O` (stereo unspecified) came in with a melting point of 101 to 104 °C.

On to `CCOc1ccccc1C(=O)c1oc2ccc(Cl)cc2c1N`, for which the melting point was 114 to 115 °C.

Compound `CC(Oc1ncn(-c2cccc(F)c2)n1)C(=O)O` (stereo unspecified) had a melting point of 177 to 179 °C.

In turn, `CCCCCCCNC(=O)Nc1ccccc1C(=O)NC1CCN(C(=O)Oc2ccccc2)CC1` displayed a melting point of 142 to 144 °C.

Regarding `CC(C)(C)OC(=O)N1CCC(NC(=O)Nc2ccc(OC(F)(F)F)cc2)CC1`, the melting point fell in the range of 160 to 162 °C.

With `Cc1ccc2c(c1)N(CC(=O)c1ccccc1C)C(=O)C(NC(=O)Nc1cccc(C(=O)O)c1)CN2C(=O)C(C)C` (stereo unspecified), the melting point was in the range of 162 to 165 °C.

In the case of `CC1(C)CC(NC(=O)CCC(=O)O)CC(C)(C)N1OC1CCCCC1`, the melting point was in the range of 136 to 138 °C.

Turning to `Cc1nc(NC(=O)c2cnn3c(C(F)F)cc(-c4ccc(C(F)(F)F)cc4)nc23)sc1S(=O)(=O)N1CCN(C)CC1`, the melting point came out at 269 °C.

On to `CC(Oc1ccc(Oc2nc3ccc(Cl)cc3s2)cc1)C(=S)OC[Si](C)(C)C` (stereo unspecified), for which the melting point was determined as 90 °C.

On to `CN1CCN(CCCN(C)C(=O)Cn2c(-c3cccc(Cl)c3)nc3cccnc32)CC1`, for which the melting point lay within 114 to 117 °C.

`CC(c1oc2ccccc2c(=O)c1-c1cccc(F)c1)n1nc(-c2cc(F)c(O)c(F)c2)c2c(N)ncnc21` (stereo unspecified) displayed a melting point of 253 to 257 °C.

Take `CC(C)C[C@H](NC(=O)c1ccccc1)C(=O)NC#N`: the melting point lay within 136 to 137 °C.

`CCCCCCCCCNC(=O)CCC(=O)O` displayed a melting point of 114 to 116 °C.

Take `CS(=O)(=O)Nc1ccc(S(=O)(=O)N2CCNc3nc4ccccc4n3CC2)cc1`: the melting point lay in the range of 192 to 200 °C.

Turning to `CCOC(=O)c1nn2c(-c3ccc(OC)cc3)nnc2c2ccccc12`, the melting point lay in the range of 180 to 182 °C.

Compound `O=C(CN(C(=O)C(=O)N(CC(=O)OCc1ccccc1)S(=O)(=O)C(F)(F)F)S(=O)(=O)C(F)(F)F)OCc1ccccc1` yielded a melting point of 53 to 55 °C.

`Fc1cc(-c2ccno2)c(Cl)cc1Cl` registered a melting point of 112 to 113 °C.

In turn, `O=C1C=C(c2c[nH]c3ccc(Cl)cc23)C(=O)N1` registered a melting point of 254 to 264 °C.

In turn, `Cc1nn(-c2cccnc2)cc1I` returned a melting point of 131 °C.

For `Cc1cc2c(=O)c(C(=O)O)cn(-c3cc(N)c(F)cc3F)c2c([N+](=O)[O-])c1F`, the melting point is 236 to 242 °C.

In turn, `CCC(=NC#N)N[C@@H]1c2cc(C#N)ccc2OC(C)(C)[C@H]1O` (relative stereo) gave a melting point of 122 to 124 °C.

`CC1(C(=O)O)COC2(CCCCCCC2)OC1` had a melting point of 120 to 122 °C.

In turn, `CCCOc1ccc(F)cc1C(=O)O` showed a melting point of 76 to 78 °C.

`CCCCN(CC(=O)OCc1ccccc1)S(=O)(=O)c1ccc(N2CCC(NC[C@H](O)c3ccc(O)c(NS(C)(=O)=O)c3)CC2)cc1` returned a melting point of 59 to 64 °C.

`O=C1C2=CSCCN2C(=O)N1c1cccc(Cl)c1F` gave a melting point of 118 to 120 °C.

In turn, `CCOC(=O)Cc1c[nH]c2cc(C3CC3)nn2c1=O` registered a melting point of 280 to 283 °C.

Compound `CCSc1cc(C)nc(SCC)c1NC(=O)CN1CCN(CCSc2nc3ccc(COC)c(COC)c3o2)CC1` showed a melting point of 118 to 120 °C.

In turn, `CC(=O)c1ccc(Cc2c(Cl)cc(N3N=CCNC3=O)cc2Cl)cc1` returned a melting point of 189 to 190 °C.

`Cn1ncc(C(=O)N2CCCC2)c1C(=O)Nc1ccn2nc(-c3cccnc3)nc2c1` showed a melting point of 226 to 228 °C.

`CCOC(=O)CCCC1Sc2ccccc2NC1=O` (stereo unspecified) had a melting point of 78 to 79 °C.

As for `Cc1ccc(Oc2c(C)c(NC(=O)CC(C)(C)C)c(C)c3c2OC(C)(C)C3)cc1`, the melting point is 182 to 184 °C.

`CCOc1nn(C(=O)NS(=O)(=O)c2c(C)csc2C)c(=O)n1C`: the melting point came to 158 °C.

Regarding `Fc1ccc2nc(S)oc2c1F`, the melting point is 209 to 210 °C.

`CC(C)Oc1cccc(C(=O)N2CCN(C(=O)CNC3CCN(Cc4ccccc4)CC3)C(c3ccc(Cl)c(Cl)c3)C2)c1` (racemic) had a melting point of 58 to 61 °C.

As for `Nc1nc2ccccc2c2c1ncn2CCCCNC(=O)N1CCOCC1`, the melting point lay in the range of 177 to 180 °C.

The compound `COC(=O)CNC(=O)c1ccc(C(=O)NS(=O)(=O)c2ccc(CCNC(=O)CC3CCCCC3)cc2)cn1` returned a melting point of 178 to 179 °C.

Take `CC(=O)OCC(C)(C)C(=O)O`: the melting point is 56 to 59 °C.

Turning to `Cn1cccc(O)c1=O`, the melting point lay within 129 to 131 °C.

`Oc1c(C2(c3ccc4ccccc4c3O)c3ccccc3-c3ccccc32)ccc2ccccc12` came in with a melting point of 268 to 290 °C.

For the compound `Cc1ccc2c(c1)NC(=O)[C@H](N)C[C@@H]2C1CCCCC1` (relative stereo), the melting point lay within 64 to 66 °C.

`CCn1cnc2c(Nc3cccc(C(=O)O)c3)nc(N[C@H]3CC[C@H](O)CC3)nc21`: the melting point stood at 317 °C.

The compound `O=C(O)C(=O)CC(=O)c1cn(Cc2ccccc2F)c2ccccc2c1=O` returned a melting point of 172 to 174 °C.

`CCCc1c2nc(C(=O)OCC)cc(OCC)c2cc2c(=O)cc(C(=O)OCC)oc12` displayed a melting point of 190 to 192 °C.

As to `COC(=O)C(C(=O)OC)c1c(C(=O)OCc2ccc(OC)cc2)cc([N+](=O)[O-])c2ccccc12`, the melting point fell in the range of 124 to 125 °C.

`CC(=O)c1cnc2c(c1)oc(=O)n2CCc1ccccn1` showed a melting point of 138 to 140 °C.

For the compound `CCCCCCc1cc(-c2nc(-c3cc(CCCCCC)c(O)cc3O)nc(-c3cc(CCCCCC)c(O)cc3O)n2)c(O)cc1O`, the melting point is over 250 °C.

In the case of `Cc1sc(N)c(C(=O)c2ccc(Cl)cc2)c1CN1CCN(c2cccc(F)c2)CC1`, the melting point was 140 to 141 °C.

Compound `COc1cc(Cc2cnc(N)nc2N)c2ccccc2c1OC` returned a melting point of 228 to 230 °C.

`O=C(O)C(Cc1ccccc1)c1ccc2ccn(Cc3ccccc3)c2c1` (stereo unspecified) had a melting point of 148 to 150 °C.

`CC(COc1ccc(CC2SC(=O)N(C(c3ccccc3)(c3ccccc3)c3ccccc3)C2=O)cc1)N1CC(COc2cccc(Cl)c2)OC1=O` (stereo unspecified) returned a melting point of 74 to 81 °C.

As for `O=C(O)Cn1cc(Cc2cccc(OCc3ccc4ccccc4n3)c2)c2ccccc21`, the melting point was in the range of 151 to 159 °C.

`CN1CCC(OC2c3ccccc3CCn3c2nc(I)c3C#N)CC1` (stereo unspecified) registered a melting point of 195 °C.

`CC(=O)Nc1ccc(C)c(C=O)n1` registered a melting point of 202 °C.

Compound `CC(=O)Nc1ccc(NC(=O)OCc2ccccc2)c(O)c1` registered a melting point of 205 °C.

`COc1nnc(-c2ccccc2)c(=O)n1N` came in with a melting point of 165 °C.

For the compound `CC1=Nc2ccccc2C1(C)CCCCCC(=O)O` (stereo unspecified), the melting point is 115 to 118 °C.

In the case of `CCCCCCCCCCCCCC=Cc1cc(C(=O)O)c[nH]1`, the melting point lay in the range of 90 to 96 °C.

`COc1ccc(C(=O)Nc2ccccc2)cc1CNS(=O)(=O)c1cc(Cl)cc(Cl)c1` showed a melting point of 203 to 206 °C.

Take `CCC(CC)n1nc(-c2ccc(OC)cc2OC)c2cccc(C(F)(F)F)c21`: the melting point lay within 115 to 116 °C.

Turning to `CC1(C)CC(=O)C(SCC2CCCCC2)=C(O)C1`, the melting point is 67.5 to 69.5 °C.

`CC1(O)CCC2C3CCC45OC4(C)C(=O)C(C#N)CC5(C)C3CCC21C` (stereo unspecified) displayed a melting point of 166 to 167 °C.

In the case of `CC(C)c1cc(C(=O)Nc2ccc(C(=O)O)nc2)oc1C(C)C`, the melting point was 106 to 108 °C.

`Cc1oc(-c2ccc3ccccc3c2)nc1COc1ccc(CO)cc1` had a melting point of 181 to 182 °C.

`CCOC(=O)c1c(N2CCN(C(=O)c3ccco3)CC2)c2cc(F)cnc2n(Cc2cccc(F)c2)c1=O` returned a melting point of 121 °C.

Compound `NC(=O)c1sc2ccc(C(F)(F)F)cc2c1O` yielded a melting point of 196 to 197 °C.

`CNCC1(c2cccc(C(F)(F)F)c2)CCN(C(=O)CN2CCN(c3cnccn3)CC2)CC1` had a melting point of 137 to 139 °C.

In general, melting point refers to the temperature of the solid-liquid transition.
